# Reference: paper PMC12265377, “CC48 a new CB2R agonist/FAAH inhibitor dual drug blocks gastric cancer progression and overcomes paclitaxel resistance” (Journal of Experimental & Clinical Cancer Research : CR, 2025)
# Like-named read-outs stand apart in the source and are kept apart here.
# How the values were obtained:
# HGC27-R cells = assay: MTT cytotoxicity assay; format: cell-based, human; settings: read-out: Cytotoxic activity IC50±SEM
# Procedure: (§1) Cell viability was checked with the MTT assay at 48 h and 72 h [24]in HGC27-S/R and AGS gastric cancer cell lines. On day 1, 5000 cells/well were seeded into 96-well plates in a volume of 100 µL. On day 2, each drug was added at the concentrations: 0.1µM, 1µM, 10µM, 30µM, 50µM, 100µM. In all the experiments, the various drug-solvents (ethanol, DMSO) were added in each control to evaluate a possible solvent cytotoxicity. After the established incubation time with drugs (48 h, 72 h), MTT (0.5 mg/mL) was added to each well, and after 3 h incubation at 37 °C, the supernatant was removed. The formazan crystals were solubilized using 100 µL of DMSO and the absorbance values at 570 and 630 nm were determined on the microplate reader Victor 3 from PerkinElmer Life Sciences. Results are expressed as mean ± SD of 3 independent experiments in triplicate.
# AGS cells = assay: MTT cytotoxicity assay; format: cell-based, human; settings: read-out: Cytotoxic activity IC50±SEM
# Procedure: as §1
# HGC27-S cells [1] = assay: MTT cytotoxicity assay; format: cell-based, human; settings: read-out: Cytotoxic activity IC50±SEM
# Procedure: as §1
# P-gp = P-gp (Homo sapiens, UniProt P08183); assay: P-gp interaction assay (Calcein-AM, MDCK-MDR1 cells)
# Procedure: This experiment was carried out as described by Contino et al. with minor modifications. MDCK-MDR1 cells, stably overexpressing P-gp, (30.000 cells per well) were seeded into black CulturePlate96/wells plate with 100 µL medium and allowed to become confluent overnight. Each test compound solubilized in culture medium was added to cell monolayers, reaching the tested final concentrations (ranging from 0.1 to 100 µM). Each 96/wells plate was incubated at 37 °C for 30 min. […] Each well was washed 3 times with ice cold PBS. […] In these experimental conditions, Calcein cell accumulation in the absence and presence of tested compounds was evaluated and the fluorescence basal level was estimated in untreated cells. In treated wells the increase of fluorescence compared to basal level was measured. EC50 values were determined on the fluorescence increase percentage versus log [dose].
# NCI-N87 cells = assay: MTT cytotoxicity assay; format: cell-based, human; settings: read-out: Cytotoxic activity IC50±SEM
# HGC27-S cells [2] = assay: Western blot of proliferation pathway proteins; format: cell-based, human; settings: 48 h, 6 µM AM630, 10 µM agonists
# Procedure: Western Blotting analysis was performed as previously described in both HGC27-S/R and AGS cells. Briefly, for each experimental condition the cells were lysed in ice-cold lysis buffer (50 mM Tris, 10 mM EDTA, 1% v/v Triton-X100), supplemented with the protease/phosphatase inhibitor cocktail set (Merck KGaA, Darmstadt, Germany), incubated on ice for 15 min and centrifuged at 13,000 × g for 15 min at 4 °C. Protein extracts were quantified by Micro BCA™ Protein Assay Kit (Thermo Fisher Scientific Inc., MA USA) and 40 µg of total protein extract was loaded on SDS-PAGE and immunoblotted with the following antibodies: CB1R and CB2R (1:500, rabbit polyclonal, Abcam, Cambridge, UK), P-TSC2 (Ser939) and TSC2 (1:1000Cell Signaling, Beverly, MA, USA), PI3K (1:1000Cell Signaling, Beverly, MA, USA), P-P70 (Thr389) and P70 (1:1000Cell Signaling, Beverly, MA, USA), P-Akt (Ser473 Thr308) and Akt (1:1000Cell Signaling, Beverly, MA, USA), P-S6 (Ser235/236) and S6 (1:1000Cell Signaling, Beverly, MA, USA), 4EBP1(1:1000Cell Signaling, Beverly, MA, USA), P-ERK(Thr202/Tyr204) and ERK (1:1000Cell Signaling, Beverly, MA, USA), PPRγ (1:1000Cell Signaling, Beverly, MA, USA), Phospho-SAPK/JNK (Thr183/Tyr185) and JNK2 (1:1000 Cell Signaling, Beverly, MA, USA), Phospho-c-Jun (Ser63) and c-Jun (1:1000 Cell Signaling, Beverly, MA, USA), caspase 3/7 (1:1000 Cell Signaling, Beverly, MA, USA), Phospho-βcatenin (Ser675) and βcatenin (1:1000 Cell Signaling, Beverly, MA, USA), vimentin (1:1000Cell Signaling, Beverly, MA, USA), P-cofillin (Ser3) and cofillin (1:1000Cell Signaling, Beverly, MA, USA), actin (1:4000Cell Signaling, Beverly, MA, USA). Subsequently, the membranes were incubated with the corresponding horseradish peroxidase (HRP)-conjugated secondary antibodies (Bio-Rad, Hercules, CA, USA). An enhanced chemiluminescence kit (Bio-Rad, Hercules, CA, USA) was used. […] Total protein expression was quantified using the ImageJ software (http://rsb.info.nih.gov/ij/). […]
# HGC27-S cells [3] = assay: Muse Ki67 cell proliferation assay; format: cell-based, human
# Text: After the specified drug treatments, the cells were processed with the Muse Ki67 cell proliferation kit, which identified actively proliferating cells based on the expression of Ki67, a nuclear protein present in the active phases of the cell cycle (G1, S, G2, and M phases) and absent in the resting G0 phase. The Muse Ki67 Proliferation Assay was used with the Guava Muse Cell Analyzer according to the manufacturer’s instructions (Luminex Corporation, Austin, USA). Briefly, the cells were stained after fixation and permeabilization procedures, using Hu Ki67 or Hu IgG1 control fluorochrome-conjugated antibodies to distinguish Ki67(+) or Ki67(-) cells, respectively. The software provided the percentage of both Ki67(+) and Ki67(-) cells.
# [4] = read-out: P-gp activity, EC50, ± SEM, MDCK-MDR1 cells, Calcein-AM
# [5] = HGC27-S, representative flow cytometry chart, 48 h, 10 µM CC48, PTX, single or combined as labelled
# P-gp, sequence (P08183 whole entry): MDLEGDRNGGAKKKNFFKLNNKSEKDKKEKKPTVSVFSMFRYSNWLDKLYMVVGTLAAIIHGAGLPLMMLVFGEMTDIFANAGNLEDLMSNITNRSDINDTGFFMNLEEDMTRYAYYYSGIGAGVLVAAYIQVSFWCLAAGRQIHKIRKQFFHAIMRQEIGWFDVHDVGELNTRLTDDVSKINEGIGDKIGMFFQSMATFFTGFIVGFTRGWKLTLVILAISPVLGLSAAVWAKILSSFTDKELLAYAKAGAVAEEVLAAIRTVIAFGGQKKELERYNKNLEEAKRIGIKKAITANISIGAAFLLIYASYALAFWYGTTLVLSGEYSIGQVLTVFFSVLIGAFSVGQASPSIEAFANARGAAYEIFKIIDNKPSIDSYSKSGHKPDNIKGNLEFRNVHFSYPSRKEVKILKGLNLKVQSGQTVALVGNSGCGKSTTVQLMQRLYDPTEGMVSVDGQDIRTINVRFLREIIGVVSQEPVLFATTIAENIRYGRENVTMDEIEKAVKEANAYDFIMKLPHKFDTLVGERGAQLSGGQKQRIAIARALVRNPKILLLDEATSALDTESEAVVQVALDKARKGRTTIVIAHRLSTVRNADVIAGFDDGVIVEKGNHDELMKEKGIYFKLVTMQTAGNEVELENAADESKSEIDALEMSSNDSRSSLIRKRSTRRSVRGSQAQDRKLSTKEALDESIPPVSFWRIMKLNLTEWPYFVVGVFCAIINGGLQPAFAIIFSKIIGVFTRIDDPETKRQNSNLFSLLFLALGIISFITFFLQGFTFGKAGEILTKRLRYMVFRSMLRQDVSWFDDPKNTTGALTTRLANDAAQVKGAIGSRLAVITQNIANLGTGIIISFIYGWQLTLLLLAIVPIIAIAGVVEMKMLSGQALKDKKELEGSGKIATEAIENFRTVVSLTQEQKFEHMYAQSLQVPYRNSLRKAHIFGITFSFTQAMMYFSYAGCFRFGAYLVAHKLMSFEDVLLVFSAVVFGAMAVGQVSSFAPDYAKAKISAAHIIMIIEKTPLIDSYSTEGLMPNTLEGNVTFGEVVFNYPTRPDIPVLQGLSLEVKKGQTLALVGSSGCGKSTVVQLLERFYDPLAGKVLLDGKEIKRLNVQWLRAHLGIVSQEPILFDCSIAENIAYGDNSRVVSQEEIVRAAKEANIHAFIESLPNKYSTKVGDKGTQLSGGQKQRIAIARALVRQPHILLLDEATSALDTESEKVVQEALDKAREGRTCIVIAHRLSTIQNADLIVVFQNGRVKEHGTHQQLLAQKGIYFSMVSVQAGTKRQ
Structure (SMILES),IC50 (HGC27-R cells; 48h),IC50 (HGC27-R cells; 72h),IC50 (AGS cells; 48h),IC50 (AGS cells; 72h),IC50 (HGC27-S cells [1]; 48h),IC50 (HGC27-S cells [1]; 72h),"interaction with P-gp (in words) (P-gp; MDCK-MDR1 cells, Calcein-AM)",EC50 (P-gp; [4]),IC50 (NCI-N87 cells; 48h),IC50 (NCI-N87 cells; 72h),expression/activation of PI3K/Akt/mTOR and ERK1/2 pathway proteins (western blot) (HGC27-S cells [2]),percentage of Ki67+ cells (HGC27-S cells [3]),further results
"COc1ccc(C(=O)c2c(C)n(CCN3CCOCC3)c3cc(I)ccc23)cc1 [AM630, reference compound]",19.6 ± 6.15 µM,19.1 ± 0.93 µM,13.4 µM,7.5 ± 1.2 µM,20.4 µM,13.7 ± 1.4 µM,low interaction with the pump,16.8 ± 3.2 µM,22.7 µM,15.6 ± 0.26 µM,significant decrease in PI3K protein expression,40.1%,–
CCCCCNc1ccccc1C(=O)NC12CC3CC(CC(C3)C1)C2 [ASF151],27.4 µM,28 ± 0.63 µM,33 µM,42.3 ± 2.2 µM,49 µM,30.1 ± 0.95 µM,excluded interaction with P-gp,> 100 µM,33.1 µM,29.3 ± 3.84 µM,no effect was detected,38.6%,–
O=C(NC12CC3CC(CC(C3)C1)C2)c1ccccc1OCc1ccccc1 [CC48],21.01 ± 0.002 µM,–,–,–,–,–,moderate interaction with P-gp,–,–,–,significant decrease in PI3K protein expression,–,"IC50 (HGC27-R cells; Homo sapiens, 48 h): 21 µM; IC50 (HGC27-R cells; Homo sapiens, 72 h): 21.2 ± 0.41 µM; IC50 (AGS cells; Homo sapiens, 48h): 57 µM; IC50 (AGS cells; Homo sapiens, 72h): 9.8 µM; IC50 (HGC27-S cells [1]; Homo sapiens, 48h): 11.6 µM; IC50 (HGC27-S cells [1]; Homo sapiens, 72h): 14.5 ± 0.34 µM; EC50 (P-gp): 7.75 ± 1.25 µM; IC50 (NCI-N87 cells; Homo sapiens, 48h): 15.1 µM; IC50 (NCI-N87 cells; Homo sapiens, 72h): 9.42 ± 0.22 µM; percentage of Ki67+ cells (HGC27-S cells [3]; HGC27-S, 48 h, combination with 4 nM PTX (10 µM compound; 6 µM AM630), PTX alone 58.1%): 42.3%; percentage of Ki67+ cells (HGC27-S cells [3]; HGC27-S, 48 h, single treatment (10 µM CC48; 4 nM PTX), control 80.50%): 75.75%; Ki67(+) cells (HGC27-S cells [3]; [5]): 75.75%; Ki67(-) cells (HGC27-S cells [3]; [5]): 24.25%"
